Experimental data from publication PMC3652012 (Neuropharmacology, 2012).
Where two headings read alike, the source gives them in different places.

How the values were obtained:
[1] = tested on: GABAA receptor-mediated IPSCs in dentate granule cells; test: Whole-cell recording of evoked monosynaptic IPSCs in hippocampal slices; type: cell-based, rat; details: n=5; for 50% decay time of evoked IPSC: relative to control before drug; for amplitude of evoked IPSC: relative to control, p>0.05
[2] = tested on: extra-synaptic GABAA receptors in dentate granule neurons; type: cell-based, rat; details: CNQX, D-APV, TTX present
[3] = target: α1(S269I)β3γ2 GABAA receptors (Rattus norvegicus, UniProt P18508+P62813+P63079, S296I); test: Whole-cell patch clamp, point-mutated receptor; type: cell-based; details: compared to wild-type α1β3γ2
[4] = target: α1β3(T256F)γ2 GABAA receptors (Rattus norvegicus, UniProt P18508+P62813+P63079, T281F); test: Whole-cell patch clamp, point-mutated receptor; type: cell-based; details: compared to wild-type α1β3γ2
[5] = target: α1β3(Y442W)γ2 GABAA receptors (Rattus norvegicus, UniProt P18508+P62813+P63079, Y467W); type: cell-based; details: compared to wild-type α1β3γ2
[6] = target: T1, recombinant α1β3γ2 GABAA receptors (Rattus norvegicus, UniProt P18508+P62813+P63079); test: Whole-cell patch clamp of transfected HEK-293T cells; details: for effect on peak amplitude of the response to saturating GABA: 10 μM modulator with 1 mM GABA, whole-cell; for effect on peak amplitude of the response to saturating GABA / maximum enhancement of the GABA response: −50 mV; for maximum enhancement of the GABA response: co-applied 5 sec with EC5–10 GABA (1 μM), response to GABA alone = 100%
[7] = target: recombinant α1β3 GABAA receptors (Rattus norvegicus, UniProt P62813+P63079); test: as above; details: 10 μM co-applied with EC5–10 GABA
[8] = target: recombinant α1β3δ GABAA receptors (Rattus norvegicus, UniProt P18506+P62813+P63079); test: as above; details: for effect on peak response to saturating GABA: 10 μM modulator with 1 mM GABA, whole-cell, −50 mV
[9] = tested on: mIPSCs in dentate granule neurons; type: cell-based, rat; details: 1 μM TTX
[10] = tested on: recombinant GABAA receptors: six α subtypes with β3 and γ2, three β subtypes with α1 and γ2, three γ subtypes with α1 and β3; test: Whole-cell patch clamp, receptors with varying α, β or γ subtype; details: 10 μM co-applied with EC5–10 GABA for each isoform
[11] = target: α1β3(M286W)γ2 GABAA receptors (Rattus norvegicus, UniProt P18508+P62813+P63079, M311W); test: Whole-cell patch clamp, point-mutated receptor; type: cell-based; details: compared to wild-type α1β3γ2
GABAA receptors = test: Direct activation of GABAA receptors in the absence of GABA; type: cell-based
[12] = target: α1(Y410W)β3γ2 GABAA receptors (Rattus norvegicus, UniProt P18508+P62813+P63079, Y437W); test: Whole-cell patch clamp, point-mutated receptor; type: cell-based; details: compared to wild-type α1β3γ2
[13] = target: α1(T260F)β3γ2 GABAA receptors (Rattus norvegicus, UniProt P18508+P62813+P63079, T287F); test: Whole-cell patch clamp, point-mutated receptor; type: cell-based; details: compared to wild-type α1β3γ2
[14] = target: T1, recombinant α1β3γ2 GABAA receptors; test: Outside-out macropatch recording, deactivation after brief GABA application; details: for increase of weighted mean deactivation rate / weighted mean deactivation rate in presence of modulator: 10 μM modulator co-applied with 1 mM GABA for 5 msec, −70 mV
[15] = target: recombinant α4β3δ GABAA receptors (Rattus norvegicus, UniProt P18506+P28471+P63079); test: Whole-cell patch clamp of transfected HEK-293T cells; details: 10 μM co-applied with EC5–10 GABA
[16] = target: α1(Q240W)β3γ2 GABAA receptors (Rattus norvegicus, UniProt P18508+P62813+P63079, Q268W); test: Whole-cell patch clamp, point-mutated receptor; type: cell-based; details: compared to wild-type α1β3γ2
[17] = honokiol (Fig 1: 30–60 μM), n=6
[18] = magnolol 30 μM (Fig 1: 30–60 μM), n=7

Chain of recombinant α1β3δ GABAA receptors (P62813 28-455): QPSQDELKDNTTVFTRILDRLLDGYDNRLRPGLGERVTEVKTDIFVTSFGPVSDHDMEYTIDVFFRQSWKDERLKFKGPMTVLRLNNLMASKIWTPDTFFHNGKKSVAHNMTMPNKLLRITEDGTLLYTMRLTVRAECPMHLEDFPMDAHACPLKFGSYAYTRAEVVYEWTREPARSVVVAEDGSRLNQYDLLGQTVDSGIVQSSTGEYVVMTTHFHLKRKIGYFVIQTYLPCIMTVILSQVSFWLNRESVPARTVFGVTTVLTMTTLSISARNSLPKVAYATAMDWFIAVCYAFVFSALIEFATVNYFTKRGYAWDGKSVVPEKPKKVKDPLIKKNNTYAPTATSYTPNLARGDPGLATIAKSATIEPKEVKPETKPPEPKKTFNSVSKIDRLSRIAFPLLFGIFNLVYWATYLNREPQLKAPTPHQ
Chain of recombinant α1β3δ GABAA receptors (P63079 26-473): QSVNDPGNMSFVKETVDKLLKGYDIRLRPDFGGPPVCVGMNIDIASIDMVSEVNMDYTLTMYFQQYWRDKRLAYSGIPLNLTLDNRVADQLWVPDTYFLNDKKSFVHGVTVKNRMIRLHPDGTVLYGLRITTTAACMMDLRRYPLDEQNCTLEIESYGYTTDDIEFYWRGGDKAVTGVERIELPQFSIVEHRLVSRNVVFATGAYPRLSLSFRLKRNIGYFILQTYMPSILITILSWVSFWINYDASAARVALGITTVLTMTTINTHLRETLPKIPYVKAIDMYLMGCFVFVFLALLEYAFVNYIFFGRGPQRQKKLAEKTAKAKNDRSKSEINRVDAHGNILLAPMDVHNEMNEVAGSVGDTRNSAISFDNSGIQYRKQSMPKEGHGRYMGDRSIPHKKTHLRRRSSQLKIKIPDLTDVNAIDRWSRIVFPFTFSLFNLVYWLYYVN
Chain of recombinant α1β3δ GABAA receptors (P18506 17-449 limits assumed): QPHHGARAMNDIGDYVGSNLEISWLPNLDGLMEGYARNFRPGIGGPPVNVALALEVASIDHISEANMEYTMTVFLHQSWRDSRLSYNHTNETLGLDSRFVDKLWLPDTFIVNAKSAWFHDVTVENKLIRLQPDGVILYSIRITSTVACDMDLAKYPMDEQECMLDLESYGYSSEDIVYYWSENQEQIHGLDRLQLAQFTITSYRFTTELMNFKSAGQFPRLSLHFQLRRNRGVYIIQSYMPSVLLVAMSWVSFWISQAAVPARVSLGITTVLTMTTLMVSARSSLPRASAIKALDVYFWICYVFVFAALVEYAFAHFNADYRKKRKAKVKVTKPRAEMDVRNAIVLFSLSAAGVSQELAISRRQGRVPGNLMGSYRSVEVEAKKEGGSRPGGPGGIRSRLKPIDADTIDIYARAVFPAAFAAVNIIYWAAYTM
T1 sequence (P62813 28-455): as the sequence (P62813 28-455) above
T1 sequence (P63079 26-473): as the sequence (P63079 26-473) above
T1 sequence (P18508 39-466): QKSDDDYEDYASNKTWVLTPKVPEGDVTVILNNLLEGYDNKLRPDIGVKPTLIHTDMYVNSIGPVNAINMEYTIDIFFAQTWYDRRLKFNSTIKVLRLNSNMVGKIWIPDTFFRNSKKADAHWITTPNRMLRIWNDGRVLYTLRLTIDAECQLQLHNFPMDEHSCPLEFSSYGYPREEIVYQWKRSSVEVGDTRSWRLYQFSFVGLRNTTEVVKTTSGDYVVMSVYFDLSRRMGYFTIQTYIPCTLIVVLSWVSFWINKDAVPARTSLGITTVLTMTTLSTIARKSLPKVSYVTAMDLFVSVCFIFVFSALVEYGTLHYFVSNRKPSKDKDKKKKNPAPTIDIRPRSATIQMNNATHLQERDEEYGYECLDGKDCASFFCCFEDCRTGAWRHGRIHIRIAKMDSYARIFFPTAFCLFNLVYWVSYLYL
Chain of α1(Q240W)β3γ2 GABAA receptors (P62813 28-455 Q268W): as the sequence (P62813 28-455) above, with Q241W counted along it
Chain of α1(Q240W)β3γ2 GABAA receptors (P63079 26-473): as the sequence (P63079 26-473) above
Chain of α1(Q240W)β3γ2 GABAA receptors (P18508 39-466): as the sequence (P18508 39-466) above
Chain of α1β3(M286W)γ2 GABAA receptors (P62813 28-455): as the sequence (P62813 28-455) above
Chain of α1β3(M286W)γ2 GABAA receptors (P63079 26-473 M311W): as the sequence (P63079 26-473) above, with M286W counted along it
Chain of α1β3(M286W)γ2 GABAA receptors (P18508 39-466): as the sequence (P18508 39-466) above
Chain of α1β3(T256F)γ2 GABAA receptors (P62813 28-455, stated change not applied): as the sequence (P62813 28-455) above
Chain of α1β3(T256F)γ2 GABAA receptors (P63079 26-473 T281F): as the sequence (P63079 26-473) above, with T256F counted along it
Chain of α1β3(T256F)γ2 GABAA receptors (P18508 39-466): as the sequence (P18508 39-466) above
Chain of α1β3(Y442W)γ2 GABAA receptors (P62813 28-455): as the sequence (P62813 28-455) above
Chain of α1β3(Y442W)γ2 GABAA receptors (P63079 26-473 Y467W): as the sequence (P63079 26-473) above, with Y442W counted along it
Chain of α1β3(Y442W)γ2 GABAA receptors (P18508 39-466): as the sequence (P18508 39-466) above
Chain of recombinant α1β3 GABAA receptors (P62813 28-455): as the sequence (P62813 28-455) above
Chain of recombinant α1β3 GABAA receptors (P63079 26-473): as the sequence (P63079 26-473) above
Chain of α1(Y410W)β3γ2 GABAA receptors (P62813 28-455 Y437W): as the sequence (P62813 28-455) above, with Y410W counted along it
Chain of α1(Y410W)β3γ2 GABAA receptors (P63079 26-473): as the sequence (P63079 26-473) above
Chain of α1(Y410W)β3γ2 GABAA receptors (P18508 39-466): as the sequence (P18508 39-466) above
Chain of α1(S269I)β3γ2 GABAA receptors (P62813 28-455 S296I): as the sequence (P62813 28-455) above, with S269I counted along it
Chain of α1(S269I)β3γ2 GABAA receptors (P63079 26-473): as the sequence (P63079 26-473) above
Chain of α1(S269I)β3γ2 GABAA receptors (P18508 39-466): as the sequence (P18508 39-466) above
Chain of α1(T260F)β3γ2 GABAA receptors (P62813 28-455 T287F): as the sequence (P62813 28-455) above, with T260F counted along it
Chain of α1(T260F)β3γ2 GABAA receptors (P63079 26-473, stated change not applied): as the sequence (P63079 26-473) above
Chain of α1(T260F)β3γ2 GABAA receptors (P18508 39-466): as the sequence (P18508 39-466) above
Chain of recombinant α4β3δ GABAA receptors (P28471 36-552): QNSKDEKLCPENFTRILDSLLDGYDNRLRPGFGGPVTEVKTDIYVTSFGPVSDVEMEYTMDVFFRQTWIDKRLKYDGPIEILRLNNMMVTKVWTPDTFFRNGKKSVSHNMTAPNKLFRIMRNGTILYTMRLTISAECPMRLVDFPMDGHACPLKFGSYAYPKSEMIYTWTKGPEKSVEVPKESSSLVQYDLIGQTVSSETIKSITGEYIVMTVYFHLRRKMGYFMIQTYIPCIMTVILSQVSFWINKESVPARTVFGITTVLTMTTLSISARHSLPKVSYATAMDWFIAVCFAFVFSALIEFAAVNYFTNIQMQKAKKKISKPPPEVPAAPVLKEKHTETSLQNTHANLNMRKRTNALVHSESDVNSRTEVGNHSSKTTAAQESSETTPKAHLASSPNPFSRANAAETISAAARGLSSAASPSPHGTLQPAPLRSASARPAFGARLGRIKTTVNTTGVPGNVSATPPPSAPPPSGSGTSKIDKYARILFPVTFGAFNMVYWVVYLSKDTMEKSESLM
Chain of recombinant α4β3δ GABAA receptors (P63079 26-473): as the sequence (P63079 26-473) above
Chain of recombinant α4β3δ GABAA receptors (P18506 17-449 limits assumed): as the sequence (P18506 17-449 limits assumed) above

SMILES	impact of mutation on potentiation [3]	impact of mutation on modulation [4]	impact of mutation on potentiation [5]	EC50 [6]	effect on peak amplitude of the response to saturating GABA [6]	maximum enhancement of the GABA response [6]	response (potentiation) of receptors lacking γ or δ [7]	EC50 [8]	effect on peak response to saturating GABA [8]	potentiation across receptor isoforms (α, β, γ subtype selectivity) [10]	impact of mutation on potentiation [11]	concentration at which agonist activity (direct activation) was observed (GABAA receptors)	impact of mutation on potentiation [12]	impact of mutation on modulation [13]	increase of weighted mean deactivation rate [14]	weighted mean deactivation rate in presence of modulator [14]	enhancement of the GABA response [15]	impact of mutation on modulation [16]	other results
C=CCc1ccc(O)c(-c2ccc(O)c(CC=C)c2)c1 [honokiol, 3,5′-diallyl-4,2′-dihydroxybiphenyl]	retained wild-type potentiation	neither of these mutations had any impact	retained wild-type potentiation	1170 ± 200 nM	no effect	483.4±64.4%	responded to a level comparable to the γ-containing receptors	3.8 ± 0.41 µM	nearly doubled	potentiated to a similar degree, with no apparent selectivity among the subtypes	retained wild-type potentiation	above 10 μM	retained wild-type potentiation	neither of these mutations had any impact	147.2%	113.5 ± 21.0 ms	large enhancement, similar to that of α1β3δ	no impact	50% decay time of evoked IPSC ([1]; honokiol 60 μM bath applied): 299.5±16.6%; amplitude of evoked IPSC ([1]; honokiol 60 μM bath applied): 113.3±25.0%; enhancement of tonic GABAergic current [2, 17]: 351.2±79.0%; mIPSC amplitude ([9]; honokiol (Fig 1: 30–60 μM)): not affected; mIPSC frequency [9, 17]: 378.9±46.8%
C=CCc1ccc(O)c(-c2cc(CC=C)ccc2O)c1 [magnolol, 5,5′-diallyl-2,2′-dihydroxybiphenyl]	retained wild-type potentiation	neither of these mutations had any impact	retained wild-type potentiation	1240 ± 210 nM	no effect	467.6±24.6%	responded to a level comparable to the γ-containing receptors	3.4 ± 0.7 µM	nearly doubled	potentiated to a similar degree, with no apparent selectivity among the subtypes	retained wild-type potentiation	above 10 μM	retained wild-type potentiation	neither of these mutations had any impact	171.8%	104.3 ± 16.2 ms	large enhancement, similar to that of α1β3δ	no impact	50% decay time of evoked IPSC ([1]; magnolol 30 μM bath applied): 267.7±7.9%; amplitude of evoked IPSC ([1]; magnolol 30 μM bath applied): 105.7±11.2%; increase of tonic GABAergic current [2, 18]: 402.5±61.7%; mIPSC amplitude ([9]; magnolol 30 μM (Fig 1: 30–60 μM)): not affected; mIPSC frequency [9, 18]: 476.2±108.5%; % area of the slower deactivation component in presence of modulator ([14]; 10 μM co-applied with 1 mM GABA for 5 msec, GABA alone 31.5±5.0): 41.8±8.1%; slow τ of deactivation in presence of modulator ([14]; 10 μM co-applied with 1 mM GABA for 5 msec, GABA alone 161.1±29.6): 228.4 ± 41.3 ms
